According to patent publication US20090017038A1, “Sigma-2 Receptor, Method of Screening of Specific Ligands and Use of the Same in Diagnostic or Therapeutic Methods” (priority 2006, published 2009):
Values belong to the compound of their own block, whether it stands above or below them.

Assays:
sigma-2 receptor [1] = target: T1, sigma-2 receptor (Homo sapiens, UniProt Q5BJF2); settings: literature (Perrone 2000; Berardi 1996); cited from earlier work
sigma-2 receptor [2] = target: T1, sigma-2 receptor; settings: literature (Perrone 2000; Berardi 1996); cited from earlier work; remark: listed apart in the source
[3] = test system: sigma-2 receptor (affinity chromatography-eluted proteins from SK-N-SH membranes); assay: saturation binding analysis with [3H]-DTG on affinity column-eluted proteins; parameters: species or system human; settings: [3H]-DTG saturation, FIG. 2A
Method: The samples, containing 400 μg of protein, radioligand, 10 μM of unlabeled DTG to determine nonspecific binding, and 1 μM of (+)-pentazocine to mask the sigma-1 receptors, were brought to equilibrium Into a final volume of 500 μL 50 mM Tris-HCl at pH 8.0 for 120 min at 25° C. At equilibrium, 5 mL buffer (50 mM Tris-HCl, pH 7.4) were added. Samples were filtered on GF/C membranes, acclimatized in 0.5% PEI for 30 min prior to use. Filters were washed twice with the buffer (5 mL). Radioactivity count was performed on a LS-6500 Beckman Scintillation Counter.

sigma-2 receptor [4] = target: T1, sigma-2 receptor; assay: sigma-2 receptor affinity; type: binding
sigma-2 receptor [5] = target: T1, sigma-2 receptor; assay: sigma-2 receptor activity
[6] = target: mixture of the affinity column-eluted histone proteins (sigma-2 receptor); assay: competition binding assay with [3H]-DTG on mixture of affinity column-eluted histone proteins; parameters: species or system human; settings: 20 mcg histone proteins, radioligand [3H]-DTG
Method: The formation of a complex was highlighted through an assay in which the histone proteins were suspended in 50 mM Tris pH 8.0. […] At equilibrium, determined by the above-mentioned kinetic studies, the histone/radioligand complex was separated after 120 min by filtration on glass fiber (GF/C) membranes, and quantification of the same was performed by radioactivity count.
The sample was incubated for 120 min at 25° C., then the histone/radioligand complex was rapidly filtered on ø 25 mm GF/C membranes. The filter was washed twice with 3 mL buffer. Scintillation liquid was added and a radioactivity reading was performed. The displacement rate was calculated as difference (%) with respect to the specific binding measures by using 10 μM of DTG.

[7] = test system: neuroblastoma or glioma tumour cells; assay: antiproliferative assay (MTT); type: cell-based
Method: (§1) The antiproliferative assay for compounds was performed by using the MTT assay (Mossman et al. 1983, J. Immunol. Methods 65, pp 55-63). The cytotoxicity assay was performed by measuring the LDH level as reported by Vilner and Bowen 2000, J. Pharmacol. Exp. Ther. 292, pp 408-413. The detailed experimental part is reported in Colabufo et al. 2004, Naunyn Schmiedeberg's Arch. Pharmacol. 370, pp. 106-113.

[8] = test system: neuroblastoma or glioma tumour cells; assay: cytotoxicity assay (LDH level); type: cell-based
Method: as §1

T1 sequence (Q5BJF2 whole entry, species assumed): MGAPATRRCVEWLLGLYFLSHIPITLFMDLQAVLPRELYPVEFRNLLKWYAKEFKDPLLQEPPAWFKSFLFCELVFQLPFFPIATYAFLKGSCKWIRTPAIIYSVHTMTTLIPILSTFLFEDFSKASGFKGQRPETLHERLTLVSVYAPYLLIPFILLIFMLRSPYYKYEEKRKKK

Compound: COc1cccc2c1CCCC2CCCN1CCN(C2CCCCC2)CC1 (centres unmarked) [PB28]
affinity for sigma-2 receptor (sigma-2 receptor [1]): high affinity
agonist activity at sigma-2 receptor (sigma-2 receptor [2]): potent agonist activity

Compound: Cc1ccccc1N=C(N)Nc1ccccc1C [[^3H]-DTG]
Bmax [3]: 588±50 fmol/mg of protein

affinity of amino-substituted ligand relative to PB28 (sigma-2 receptor [4]): unmodified
sigma-2 activity of amino-substituted ligand relative to PB28 (sigma-2 receptor [5]): unmodified
Compound: COc1ccc(N)c2c1CCCC2CCCN1CCN(C2CCCCC2)CC1 (centres unmarked) [compound 2, 1-cyclohexyl-4-[3-(8-amino-5-methoxy-1,2,3,4-tetrahydronaphtalen-1-yl)propyl]piperazine]

Ki [6]: 68 pM
Compound: COc1ccccc1[C@H]1CC[C@H](N2CCN(C3CCCCC3)CC2)CC1 [trans-1-cyclohexyl-4-[4-(2-methoxy-phenyl)cyclohexyl]piperazine]
antiproliferative activity [7]: homogeneous to results reported in literature for the best ligand known to date: the compound PB28
cytotoxic activity [8]: homogeneous to results reported in literature for the best ligand known to date: the compound PB28
